Measurements from patent US20260355188A1, “COMBINATION THERAPIES USING PRMT5 INHIBITORS AND BCL-2 FAMILY INHIBITORS FOR THE TREATMENT OF CANCER” (MIRATI THERAPEUTICS, INC., priority 2022, published 2026).

Assays:
[1] = oral; cited from earlier work
LU99 xenograft tumors = experiment: In vivo combination study (LU99 model), Example 4; parameters: species or system female nu/nu mice; conditions: MRTX1719 100 mg/kg PO QD, A-1331852 25 mg/kg PO BID, alone or combined
Source text: Immunodeficient female nu/nu mice were implanted with 5×10^6 LU99 cancer cells in 50% Matrigel. Tumor volume measurements were collected using calipers and determined utilizing the formula 0.5×L×W^2 in which L refers to length and W refers to width of each tumor. When tumors reached approximately 125-150 mm^3, animals were randomized to receive A) vehicle, B) a PRMT5 inhibitor, C) navitoclax (ABT-263), D) venetoclax (ABT-199), E) A-1331852, F) the PRMT5 inhibitor and navitoclax, F) the PRMT5 inhibitor and venetoclax, or G) the PRMT5 inhibitor and A-1331852 all administered orally (PO) with the indicated dose and schedule for 20-34 days. Tumor volume was measured twice a week (n=5/treatment group). Average tumor volume and standard error of the mean was calculated and plotted at each study day using GraphPad Prism.
Example 4 was carried out according to the in vivo study procedure described above in Example 1.
The PRMT5 inhibitor was MRTX1719 administered at 100 mg/kg once a day (QD). MRTX1719 is (2M)-2-(4-(4-(aminomethyl)-1-oxo-1,2-dihydrophthalazin-6-yl)-1-methyl-1H-pyrazol-5-yl)-4-chloro-6-cyclopropoxy-3-fluorobenzonitrile, disclosed as Example 16-8 at p. 307 of the international patent publication No. WO 2021/050915 A1, published 18 Mar. 2021, incorporated by reference in its entirety. The BCL-2 family inhibitor, A-1331852 was administered at 25 mg/kg twice a day (BID) and synthesized at Wuxi AppTec (Wuhan, China).

Row | SMILES | bioavailable when administered orally [1] | Average Tumor Volume (LU99 xenograft tumors; day 2) | Average Tumor Volume (LU99 xenograft tumors; day 6) | Average Tumor Volume (LU99 xenograft tumors; day 9) | Average Tumor Volume (LU99 xenograft tumors; day 14) | Average Tumor Volume (LU99 xenograft tumors; day 16) | Average Tumor Volume (LU99 xenograft tumors; day 20) | Average Tumor Volume (LU99 xenograft tumors; day −1)
1 | Cc1c(-c2ccc(N3CCc4cccc(C(=O)Nc5nc6ccccc6s5)c4C3)nc2C(=O)O)cnn1CC12CC3CC(CC(C3)C1)C2 [A-1331852] | known to be bioavailable when administered orally | 217 mm^3 | 393 mm^3 | 547 mm^3 | 960 mm^3 | 1228 mm^3 | 1331 mm^3 | 137 mm^3
2 | Cn1ncc(-c2ccc3c(=O)[nH]nc(CN)c3c2)c1-c1c(F)c(Cl)cc(OC2CC2)c1C#N (atropisomer, axis not shown; (M)) [MRTX1719, (2M)-2-(4-(4-(aminomethyl)-1-oxo-1,2-dihydrophthalazin-6-yl)-1-methyl-1H-pyrazol-5-yl)-4-chloro-6-cyclopropoxy-3-fluorobenzonitrile] |  | 221 mm^3 | 229 mm^3 | 232 mm^3 | 268 mm^3 | 296 mm^3 | 360 mm^3 | 137 mm^3
